# Laboratory results as given in US20220125803A1, “METHODS FOR THE TREATMENT OF PERIMENOPAUSE AND MENOPAUSE” (Praxis Precision Medicines, Inc., priority 2019, published 2022).
# Columns and labels:
# [1] = human, in vivo, 30 mg
# Procedure: (§4) The Day 1 dose was administered after a minimum of 10 hour fasting. No additional fluid intake was allowed until 1 hour after drug administration. A standard meal was given at least 4 hours post-dose. The Day 5 dose was administered following a high-fat, high calorie meal. Participants remained at the clinical site for a total of 8 days to complete PK sampling after the second dose.
# (§5) Pharmacokinetic variables (including but not limited to Cmax, Tmax and AUC(0-last)) were calculated using non-compartmental analysis.
# [2] = test system: women that are perimenopausal with depression; assay: Open label trial, Hamilton Depression Rating Scale (HAM-D); format: in vivo, human; settings: one patient
# Procedure: (§1) The study is a two-week open label trial in women that are perimenopausal with depression during which patients were treated with an oral formulation of Compound 1 in adjunct to standard antidepressant treatment.
# […] Participants were administered daily doses of Compound 1 (up to 120 mg qPM, including 15 mg once a day, 20 mg once a day, 25 mg once a day, 30 mg once a day, 35 mg once a day, 40 mg once a day, 45 mg once a day, 50 mg once a day, 55 mg once a day, 60 mg once a day, 65 mg once a day, 70 mg once a day, 75 mg once a day, 80 mg once a day, 85 mg once a day, 90 mg once a day, 95 mg once a day, 100 mg once a day, 105 mg once a day, 110 mg once a day, 115 mg once a day and 120 mg once a day) for 14 days.
# The Primary efficacy outcome was measured by the Hamilton Depression Rating Scale (HAM-D). The HAM-D was administered at baseline (Day 1, predose), Day 4, Day 8, Day 15, Day 21 and Day 28.
# HAM-D Response was defined as a reduction from baseline of >50% in total HAM-D score. HAM-D remission was defined as a total HAM-D score of <7.
# [3] = test system: women that are perimenopausal with depression; assay: Open label trial, safety/tolerability; format: in vivo, human; settings: one patient, 60 mg dose once a day for 14 days
# Procedure: During the study, physical examination, vital signs, ECG, and clinical laboratory tests were conducted. The Modified Observers Assessment of Anesthesia and Sedation, (MOASS) and the Columbia Suicide were performed.
# [4] = Multiple escalating dose study, plasma pharmacokinetics, Cohorts 1-3; format: in vivo, human
# Procedure: Healthy subjects aged 18 to 55 years were treated with an oral suspension of Compound 1 to study the safety, tolerability, pharmacokinetics and pharmacodynamics of Compound 1 in healthy subjects.
# The study was a randomized, double-blind, placebo-controlled multiple escalating dose study comprised of 3 cohorts that each received an oral suspension. Each cohort consisted of two groups: one group treated with Compound 1 and another treated with placebo. In each cohort, the ratio of Compound 1-treated subjects to placebo-treated subjects was 3:1.
# The Compound 1-treated subjects of Cohort 1 were treated with 15.0 mg of Compound 1 once per day (QD). The Compound 1-treated subjects of Cohort 2 were treated with 30.0 mg of Compound 1 QD. The Compound 1-treated subjects of Cohort 3 were treated with 60.0 mg of Compound 1 QD.
# Patients in each cohort were treated with Compound 1 for 14 consecutive days, unless dosing was halted by the Safety Review Committee (SRC). The dosing of subjects in each of the cohorts was staggered with the decision to dose escalate based on SRC review of a minimum of 14 days of observation of safety and tolerability data and review of the available plasma PK data from the preceding cohort(s). Thus, dose escalation was predicated on tolerability of the prior cohorts.
# Compound 1 was administered under fasted conditions (no food or drink, except water, for at least 10 hours prior to dosing). Immediately after administration of Compound 1, the subject was be administered 240 mL water. No additional fluid intake was allowed until 1 hour after Compound 1 administration.
# Cohort 1 subjects received a single 15.0 mg dose of a Compound 1 suspension on the morning of Days 1-14. Cohort 2 subjects received a single 30.0 mg dose of a Compound 1 suspension on the morning of Days 1-14. Cohort 3 subjects received a single 60.0 mg dose of a Compound 1 suspension on the morning of Days 1-14. For all cohorts, the last treatment was administered on the morning of Day 14.
# Plasma samples were analyzed to determine Compound 1 concentrations using a validated assay method. Pharmacokinetic variables (including but not limited to Cmax, Tmax and AUC(0-last)) were calculated using non-compartmental analysis. PK parameters for Compound 1 were derived from the plasma concentration data using non-compartmental analysis with Phoenix™ WinNonlin® v 8.0 (Pharsight Corporation, USA).
# Blood (Cohorts 1-3): For each cohort, blood samples were collected on Days 1, 2, 3, 4, 5, 6 and 14 at the following time points: Day 1 at pre-dose (0 hour), 0.25, 0.5, 0.75, 1, 1.5, 2, 2.5, 3, 4, 6, 8, 12, 16 h post-dose; Day 2 at pre-dose (24 h), Day 3 at pre-dose (48 h), Day 4 at pre-dose (72 h), Day 5 at pre-dose (96 h), Day 6 at pre-dose (120 h); Day 14 at pre-dose 0.25, 0.5, 0.75, 1, 1.5, 2, 2.5, 3, 4, 6, 8, 12, 16, 24, 36, 48, and 72 hours. Trough level blood samples were collected on Days 2, 3, 4, 5, 6 and 14, prior to the morning dose administrations.
# Descriptive statistics were calculated for plasma and urine PK parameter and concentration data, and summarized by study day and time point. Arithmetic means, coefficient of variation (CV), standard deviation, median, minimum, and maximum values, and number of observations were calculated for all PK parameters and trough concentration data. Except for Tmax, the geometric mean, geometric standard deviation, and geometric CV were provided for all PK parameter and concentration data. […]
# [5] = Food Effect Cohort (Cohort 4), plasma pharmacokinetics fasted vs fed; settings: Cohort 4, single 30 mg
# Procedure: as §4, §5
# [6] = test system: women that are perimenopausal with depression; assay: Open label trial, vasomotor symptom diary (hot flushes); format: in vivo, human; settings: one patient, 60 mg once a day, by Day 4 (baseline 9 per day)
# Procedure: as §1
# (§2) Treatment Period: The treatment period was 14 days in duration. Participants were administered daily doses of Compound 1 (up to 120 mg qPM, including 15 mg once a day, 20 mg once a day, 25 mg once a day, 30 mg once a day, 35 mg once a day, 40 mg once a day, 45 mg once a day, 50 mg once a day, 55 mg once a day, 60 mg once a day, 65 mg once a day, 70 mg once a day, 75 mg once a day, 80 mg once a day, 85 mg once a day, 90 mg once a day, 95 mg once a day, 100 mg once a day, 105 mg once a day, 110 mg once a day, 115 mg once a day and 120 mg once a day) for 14 days.
# (§3) Secondary outcome measure was by the Clinical Global Impression (CGI), DSM-V MDD Anxious Distress Specifier, the Hamilton Anxiety Rating Scale (HAM-A), the Montgomery-Asberg Depression Rating Scale (MADRS), the Perimenopausal Depression Questionnaire (Meno-D), the Pittsburgh Sleep Quality Index (PSQI), the revised Sabbastberg Sexual Function Scale, the Symptoms of Depression Questionnaire (SDQ), and a vasomotor symptom diary.
# [7] = test system: women that are perimenopausal with depression; assay: Open label trial, Perimenopausal Depression Questionnaire (Meno-D); format: in vivo, human; settings: one patient, 60 mg once a day
# Excerpt: The Meno-D is a perimenopausal depression rating scale consisting of 12 items, each items is scored on a 5-point scale (ranging from 0 to 4) (Kulkami J, et al., Development and validation of a new rating scale for perimenopausal depression-the Meno-D. Transl Psychiatry. 2018 Jun. 28; 8(1):123). The total score of the 12 items ranges from […] with higher scores indicating more severe perimenopausal depression. The MENO-D has five factors (or domains): Self (four items), Sexual (two items), Somatic (two items), Cognitive (two items) and Sleep (two items). MENO-D assesses the patient's self-esteem, sense of isolation, paranoid thinking, anxiety, interest in socialising, changes in libido and sexual activity, any decrease in energy, physical pain, changes in weight, subjective changes in memory and concentration, and increases in irritability and/or sleep disturbances.
# as §1, §2, §3
smiles,measurement,setting,value
"COC[C@@]1(O)CC[C@@]2(C)[C@@H](CC[C@@H]3[C@@H]2CC[C@]2(C)[C@@H](C(=O)Cn4ccnc4)CC[C@@H]32)C1 [Compound 1, 3α-Hydroxy-3β-methoxymethyl-21-(1′-imidazolyl)-5α-pregnan-20-one]","Tmax, fasting compared to fed conditions",[1],tendency for a shorter Tmax
same,HAM-D score,"[2]; 60 mg once a day for 14 days, Day 15 (baseline 28)",8
same,improvement in HAM-D score,"[2]; 60 mg once a day for 14 days, adjunct to fluoxetine, Day 8",48%
same,improvement in HAM-D score from baseline value,"[2]; 60 mg once a day for 14 days, adjunct to fluoxetine, Day 15",71%
same,HAM-D Remission criterion (total HAM-D score of <7),"[2]; 60 mg once a day, Day 15",nearly met the HAM-D Remission criterion
same,HAM-D Response criterion (reduction from baseline of >50%),"[2]; 60 mg once a day, Day 15",met the HAM-D Response criterion
same,adverse event reported,[3],mild epigastric pain after dosing
same,tolerability,[3],well-tolerated
same,accumulation factor of the dosing interval (ratio of AUCDay14/AUCDay1),"[4]; Cohort 1, 15.0 mg QD",approximately 1.25
same,AUCinf,"[4]; Cohort 1, 15.0 mg QD, Day 14 steady state, Geo Mean",600.228 ng·h/mL
same,accumulation factor of the dosing interval (ratio of AUCDay14/AUCDay1),"[4]; Cohort 2, 30.0 mg QD",approximately 1.25
same,AUC0-tau,"[4]; human, in vivo, 15 mg",361.762 ng·h/mL
same,Cmax,"[4]; human, in vivo, 15 mg",56.016 ng/mL
same,"t1/2, fasted versus fed",[5],similar
same,decrease in frequency of hot flushes,[6],66%
same,improvement in MENO-D from baseline value,[7]; Day 8 (baseline 28),54%
same,MENO-D classification,[7]; Day 8 and Day 15,no longer met classification for perimenopausal depression requiring clinical attention
same,improvement in MENO-D factor Cognitive,[7]; Day 15,100%
same,improvement in MENO-D factor Self,[7]; Day 15,63%
same,improvement in MENO-D factor Sexual,[7]; Day 15,43%
same,improvement in MENO-D factor Sleep,[7]; Day 15,40%
same,improvement in MENO-D factor Somatic,[7]; Day 15,50%
same,improvement in MENO-D from baseline value,[7]; Day 15 (baseline 28),57%
"CNCCC(Oc1ccc(C(F)(F)F)cc1)c1ccccc1 (stereo not drawn) [fluoxetine, reference compound]",clinical response of depression symptoms (HAM-D score and clinical evaluation),"[2]; 15 mg daily taken for 8 months, before Compound 1",had not demonstrated a sufficient clinical response
